In patent US5827872A, “Xenomins novel heterocyclic compounds with antimicrobial and antneoplastic properties” (priority 1996, dated 1998):
≈ marks a conversion by molar mass, not a printed value.

How the values were obtained:
Format in all cases: cell-based
[1] = system: breast cancer MCF-7; assay: Antineoplastic activity in vitro, method of Skehan et al. (1990), MCF-7; settings: Homo sapiens, MCF7, MCF-7 cells
Protocol: (§1) The antineoplastic activities of xenomins have been determined in vitro in cell cultures of human colon cancer HT-29, breast cancer MCF-7 and cervical cancer Hela. The tests were carried out using the method described by Skehan et al. (1990).

[2] = system: S. aureus 0017; assay: MIC by standard dilution method (NCCLS 1990), S. aureus 0017 (methicillin-resistant clinical isolate); settings: Staphylococcus aureus; S. aureus 0017, clinical isolate of methicillin-resistant strain; 35° C., 24 h incubation
Protocol: (§2) To determine minimum inhibitory concentration (MIC) of the xenomins, the standard dilution method was used as outlined by The National Committee for Clinical Laboratory Standards (1990) for testing antibiotics. The tests were coducted at 35° C. and the MICs were determined after 24 h incubation.
(§3) *clinical isolates of methicillinresistant strain.

[3] = system: S. aureus 0012; assay: MIC by standard dilution method (NCCLS 1990), S. aureus 0012 (methicillin-resistant clinical isolate); settings: Staphylococcus aureus; S. aureus 0012, clinical isolate of methicillin-resistant strain; 35° C., 24 h incubation
Protocol: as §2, §3

[4] = system: Staphylococcus aureus ATCC 29213; assay: MIC by standard dilution method (NCCLS 1990), Staphylococcus aureus ATCC 29213; settings: ATCC29213, 35° C., 24 h incubation
Protocol: as §2

[5] = system: Cryptococcus neoformans ATCC14117; assay: MIC by standard dilution method (NCCLS 1990), Cryptococcus neoformans ATCC14117; settings: 35° C., 24 h incubation
Protocol: as §2

[6] = system: human colon cancer HT-29; assay: Antineoplastic activity in vitro, method of Skehan et al. (1990), HT-29; settings: HT29 cells
Protocol: as §1

[7] = system: Bacillus subtilis; assay: MIC by standard dilution method (NCCLS 1990), Bacillus subtilis; settings: 35° C., 24 h incubation
Protocol: as §2

[8] = system: Candida tropicalis CBS 94; assay: MIC by standard dilution method (NCCLS 1990), Candida tropicalis CBS 94; settings: CBS94, 35° C., 24 h incubation
Protocol: as §2

[9] = system: cervical cancer Hela; assay: Antineoplastic activity in vitro, method of Skehan et al. (1990), Hela; settings: Homo sapiens, Hela cells
Protocol: as §1

Row | SMILES | IC50 [1] | MIC [2] | MIC [3] | MIC [4] | MIC [5] | IC50 [6] | MIC [7] | MIC [8] | IC50 [9]
1 | CCCCCC(=O)Nc1c2[s+]([O-])scc-2n(C)c1=O (single isomer, unassigned) [Xenomin 1] | 1.37 µg/mL (≈ 4.56 µM) | 10 µg/mL (≈ 33.3 µM) | 10 µg/mL (≈ 33.3 µM) | 20 µg/mL (≈ 66.6 µM) | 13 µg/mL (≈ 43.3 µM) | 0.14 µg/mL (≈ 0.466 µM) | 5 µg/mL (≈ 16.6 µM) | 100 µg/mL (≈ 333 µM) | 0.24 µg/mL (≈ 0.799 µM)
2 | CC(C)CCCC(=O)Nc1c2[s+]([O-])scc-2n(C)c1=O (single isomer, unassigned) [Xenomin 2] | 1.74 µg/mL (≈ 5.53 µM) | 41 µg/mL (≈ 130 µM) | 41 µg/mL (≈ 130 µM) | 41 µg/mL (≈ 130 µM) | 25 µg/mL (≈ 79.5 µM) | 0.34 µg/mL (≈ 1.08 µM) | 41 µg/mL (≈ 130 µM) | > 100 µg/mL | 0.65 µg/mL (≈ 2.07 µM)
